The values below come from patent US5003055A, “Anthracycline derivatives having inhibitory activity against reverse transcriptase of human immunodeficiency virus” (priority 1987, dated 1991).

≈ marks a conversion by molar mass, not a printed value. Counter-ions that a name gives are not always drawn. Like-named read-outs stand apart in the source and are kept apart here.

Series [1] concerns the target HIV reverse transcriptase (Human immunodeficiency virus type 1 group M subtype B, UniProt P04585). In words: biochemical. The conditions noted are these: for IC50: HIV reverse transcriptase inhibitory activity (IC50, μg/ml) (A), 37° C., 30 minutes, HIV lysate; for Enzyme inhibitory activity/cytotoxicity ratio (A)/(B): ratio of IC50 HIV reverse transcriptase (A) to IC50 P-388 (B). On the procedure:
(a) After treating a supernatant of a culture of HIV-infected T4-cells (Molt 4/HTLV 1116/H9) with 9.5% polyethylene glycol for 3 hours, the supernatant was centrifuged at 2500 rpm for 30 minutes to obtain a precipitate. This precipitate was lysed with a mixture comprising 33.3% glycerol, […] tris-HCl (pH 7.5), 533 mM KCl, 0.32% Triton X-100 and 3.3 mM dithiothreitol, so as to prepare an HIV lysate (2.5×10^6 PFU/ml) The activity of the reverse transcriptase present in the HIV lysate thus prepared was determined in terms of the up-take rate of [α-^32 P]dATP during the synthesis of DNA, with using rabbit-β-globin mRNA and oligo dT as the template and primer, respectively. Thus, 1 μl of the HIV lysate was added to 9 μl of an enzymatic reaction solution comprising 50 mM tris-HCl (pH 8.3), 70 mM KCl, 10 mM MgCl2, 30 mM mercaptoethanol, 90 nM dNTPs, 3.3 μg/ml oligo dT, 8.3 mU/ml human placenta RNase inhibitor, 5 μg/ml β-globin mRNA, 0.14 mCi/ml [α-^32 P]dATP. After incubating the resultant mixture at 37° C. for 30 minutes, 10% aqueous trichloroacetic acid (TCA) was added to terminate the reaction.
After completion of the reaction, the whole reaction mixture was placed on a nitrocellulose membrane filter so as to adsorb the resultant DNA into the filter. The filter was then washed with 5% TCA and 20 mM sodium pyrophosphate to remove the unreacted [α-^32 P]dATP therefrom. The amount of the resultant DNA on the nitrocellulose membrane filter was calculated by measuring its radioactivity.
The novel anthracycline derivatives of this invention were separately added to the enzymatic reaction solution. The above experiment was repeated using the so prepared enzymatic reaction solution containing the anthracycline derivative as a test compound, so that the evaluation was made of IC50 of the test compound inhibitory to the activity of the HIV reverse transcriptase, namely the concentration of the test compound which was 50% inhibitory to the activity of the HIV reverse transcriptase.

Series [2] has as its system mouse lymphocytic leukemia P-388 cells. As to the kind of experiment: Cytotoxicity against P-388 cells (proliferation, MTT technique). The series is classed as cell-based. The conditions noted are these: for IC50: Mus musculus, P388, 48 h, read-out: Cytotoxicity against P-388 cells (IC50, μg/ml) (B); for Cytotoxicity against P-388 cells (IC50, μg/ml) (B): 2880 min. As to the method:
(b) On the other hand, the cytotoxicity was measured in the following manner. The novel anthracycline derivative of this invention was added to 5×10^3 cells of mouse lymphocytic leukemia P-388 in an incubation medium. After stirring, themixture was incubated Forty-eight hours later, the rate (%) of proliferation of the cells was measured by the MTT technique.

The conditions of series [3]: background statement; cited from earlier work.

With `COCc1ccc(C(=O)OCC(=O)[C@]2(O)Cc3c(O)c4c(c(O)c3[C@@H](O[C@H]3C[C@H](N)[C@H](O)[C@H](C)O3)C2)C(=O)c2c(OC)cccc2C4=O)cc1OC` [NOVA-1, 14-O-(3-methoxy-4-methoxymethylbenzoyl)adriamycin], in series [1], the IC50 is 41.6 µM and the “Enzyme inhibitory activity/cytotoxicity ratio (A)/(B)” value is on record as 103. Also, the IC50 in series [2] (P-388, 48 hours, MTT technique) was determined as 0.29 µg/mL (≈ 0.402 µM).
With `COc1cccc2c1C(=O)c1c(O)c3c(c(O)c1C2=O)C[C@@](O)(C(=O)CO)C[C@@H]3O[C@H]1C[C@H](N)[C@H](O)[C@H](C)O1` [ADM, adriamycin, reference compound], the “toxicity (in words)” value in series [3] is “high toxicity”. Moreover, the IC50 in series [2] (P-388, 48 hours, MTT technique) was 0.037 µg/mL (≈ 0.0681 µM).
As for `CCCCCCCCCCCCCCCCCCOc1ccc(C(=O)OCC(=O)[C@]2(O)Cc3c(O)c4c(c(O)c3[C@@H](O[C@H]3C[C@H](N)[C@H](O)[C@H](C)O3)C2)C(=O)c2c(OC)cccc2C4=O)cc1OCCCCCCCCCCCCCCCCCC` [NOVA-11.HCl], in series [1], the IC50 is 84.4 µM and the “Enzyme inhibitory activity/cytotoxicity ratio (A)/(B)” value came to 53. Also, in series [2] (P-388, 48 hours, MTT technique), the IC50 turned out to be 1.9 µg/mL.
The corresponding values for `CCCCCCCCCCCOc1ccc(C(=O)OCC(=O)[C@]2(O)Cc3c(O)c4c(c(O)c3[C@@H](O[C@H]3C[C@H](N)[C@H](O)[C@H](C)O3)C2)C(=O)c2c(OC)cccc2C4=O)cc1OCCCCCCCCCCC` [NOVA-10.HCl] are 16.2 µM, 8.9 and 1.8 µg/mL.
Regarding `CCCCCCOc1ccc(C(=O)OCC(=O)[C@]2(O)Cc3c(O)c4c(c(O)c3[C@@H](O[C@H]3C[C@H](N)[C@H](O)[C@H](C)O3)C2)C(=O)c2c(OC)cccc2C4=O)cc1OCCCCCC` [NOVA-9.HCl], in series [1], the IC50 is 17.7 µM and the “Enzyme inhibitory activity/cytotoxicity ratio (A)/(B)” value is on record as 4.8. Also, the “Cytotoxicity against P-388 cells (IC50, μg/ml) (B)” value (shortened to “Cytotoxicity against P-388 cells”) in series [2] (P-388, 48 hours, MTT technique) was 3.1 µg/mL.
As to `CCCCC(=O)Oc1ccc(C(=O)OCC(=O)[C@]2(O)Cc3c(O)c4c(c(O)c3[C@@H](O[C@H]3C[C@H](N)[C@H](O)[C@H](C)O3)C2)C(=O)c2c(OC)cccc2C4=O)cc1OC(=O)CCCC` [NOVA-12.HCl], in series [1], the IC50 is 13 µM and the “Enzyme inhibitory activity/cytotoxicity ratio (A)/(B)” value came to 50. In series [2] (P-388, 48 hours, MTT technique), the IC50 is 0.22 µg/mL.
On the same counts, the results for `CCCCCCCCCCCOCc1ccc(C(=O)OCC(=O)[C@]2(O)Cc3c(O)c4c(c(O)c3[C@@H](O[C@H]3C[C@H](N)[C@H](O)[C@H](C)O3)C2)C(=O)c2c(OC)cccc2C4=O)cc1OCCCCCCCCCCC` [NOVA-3.HCl, 14-O-(3-n-undecyloxy-4-n-undecyloxymethylbenzoyl)adriamycin hydrochloride] are 18.5 µM, 38 and 0.49 µg/mL.
For `COc1cccc2c1C(=O)c1c(O)c3c(c(O)c1C2=O)C[C@@](O)(C(=O)COC(=O)c1ccc(CO)c(O)c1)C[C@@H]3O[C@H]1C[C@H](N)[C@H](O)[C@H](C)O1` [NOVA-6, 14-O-(3-hydroxy-4-hydroxymethylbenzoyl)adriamycin], in series [1], the IC50 was 79.3 µM and the “Enzyme inhibitory activity/cytotoxicity ratio (A)/(B)” value amounted to 370. The IC50 in series [2] (P-388, 48 hours, MTT technique) amounted to 0.15 µg/mL (≈ 0.216 µM).
On the same counts, the results for `CCCCCCOCc1ccc(C(=O)OCC(=O)[C@]2(O)Cc3c(O)c4c(c(O)c3[C@@H](O[C@H]3C[C@H](N)[C@H](O)[C@H](C)O3)C2)C(=O)c2c(OC)cccc2C4=O)cc1OCCCCCC` [NOVA-2, 14-O-(3-n-hexyloxy-4-n-hexyloxymethylbenzoyl)adriamycin] are 19.7 µM, 35 and 0.48 µg/mL (≈ 0.557 µM).
On the same counts, the results for `CCCCCCCCCCCOc1cc(C(=O)OCC(=O)[C@]2(O)Cc3c(O)c4c(c(O)c3[C@@H](O[C@H]3C[C@H](N)[C@H](O)[C@H](C)O3)C2)C(=O)c2c(OC)cccc2C4=O)ccc1CO` [NOVA-4, 14-O-(3-n-undecyloxy-4-hydroxymethylbenzoyl)adriamycin] are 14.7 µM, 25 and 0.5 µg/mL (≈ 0.59 µM).
For the molecule `COc1cccc2c1C(=O)c1c(O)c3c(c(O)c1C2=O)C[C@@](O)(C(=O)CO)C[C@@H]3O[C@H]1C[C@H](N)[C@H](O)[C@H](C)O1` [ADM.HCl, reference compound], in series [2] (P-388, 48 hours, MTT technique), the “Cytotoxicity against P-388 cells” value worked out at 0.02 µg/mL.
In the case of `CCCCCCOc1ccc(C(=O)OCC(=O)[C@]2(O)Cc3c(O)c4c(c(O)c3[C@@H](O[C@H]3C[C@H](N)[C@H](O)[C@H](C)O3)C2)C(=O)c2c(OC)cccc2C4=O)cc1OCCCCCC` [NOVA-9.1/2H2 SO4], in series [1], the IC50 is 27.1 µM and the “Enzyme inhibitory activity/cytotoxicity ratio (A)/(B)” value is on record as 4.4. The “Cytotoxicity against P-388 cells” value in series [2] (P-388, 48 hours, MTT technique) turned out to be 5.2 µg/mL.
`COc1cccc2c1C(=O)c1c(O)c3c(c(O)c1C2=O)C[C@@](O)(C(=O)COC(=O)c1ccc2c(c1)OC(C)(C)OC2)C[C@@H]3O[C@H]1C[C@H](N)[C@H](O)[C@H](C)O1` [NOVA-7, 14-O-(0-isopropylidene-3-hydroxy4-hydroxymethylbenzoyl)adriamycin]: in series [1], the IC50 is 31.3 µM and the “Enzyme inhibitory activity/cytotoxicity ratio (A)/(B)” value came out at 121. Besides, in series [2], the IC50 worked out at 0.19 µg/mL (≈ 0.259 µM).
Take `CCCCCCOc1ccc(C(=O)OCC(=O)[C@]2(O)Cc3c(O)c4c(c(O)c3[C@@H](O[C@H]3C[C@H](N)[C@H](O)[C@H](C)O3)C2)C(=O)c2c(OC)cccc2C4=O)cc1OCCCCCC` [NOVA-9, 14-O-(3,4-di-n-hexyloxybenzoyl)adriamycin]: in series [1], the IC50 was 23.6 µM and the “Enzyme inhibitory activity/cytotoxicity ratio (A)/(B)” value is 7.8. Further, in series [2] (P-388, 48 hours, MTT technique), the IC50 turned out to be 2.6 µg/mL (≈ 3.07 µM).
On the same counts, the results for `CCCCCCCCCCCCCCCCCCOCc1ccc(C(=O)OCC(=O)[C@]2(O)Cc3c(O)c4c(c(O)c3[C@@H](O[C@H]3C[C@H](N)[C@H](O)[C@H](C)O3)C2)C(=O)c2c(OC)cccc2C4=O)cc1OCCCCCCCCCCCCCCCCCC` [NOVA-5.HCl, 14-O-(3-n-octadecyloxy-4-n-octadecyloxymethylbenzoyl)adriamycin hydrochloride] are 18.4 µM, 6.9 and 3.2 µg/mL.
Regarding `COc1ccc(C(=O)OCC(=O)[C@]2(O)Cc3c(O)c4c(c(O)c3[C@@H](O[C@H]3C[C@H](N)[C@H](O)[C@H](C)O3)C2)C(=O)c2c(OC)cccc2C4=O)cc1OC` [NOVA-8, 14-O-(3,4-dimethoxybenzoyl)-adriamycin], in series [1], the IC50 was 26.8 µM and the “Enzyme inhibitory activity/cytotoxicity ratio (A)/(B)” value is reported as 58. In series [2] (P-388, 48 hours, MTT technique), the IC50 was 0.33 µg/mL (≈ 0.466 µM).
